Results: patent US5641485A, “Caledothricins used in the treatment mycotic diseases” (Hoffmann-La Roche Inc., priority 1994, dated 1997)
≈ marks a conversion by molar mass, not a printed value. Like-named read-outs stand apart in the source and are kept apart here.

Tests used:
Absidia corymbifera = experiment: In vitro antifungal activity (MIC) against Absidia corymbifera; format: cell-based; details: Lichtheimia corymbifera; strain IFO8084; pH 7.0, 27° C., 10,000 cfu/ml, 0.2% low melting point agarose
Method: (§1) MIC is defined as the minimal concentration of test compound at which no visible growth is detected. Culture media employed for measuring MICs were yeast nitrogen base (Difco) supplemented with 1% of glucose, 0.2% of low melting point agarose and 0.25% of K2 HPO4 (pH 7.0). The low melting point agarose was omitted when antifungal activity against Candida albicans and Cryptococcus neoformans was measured. The culture media were inoculated with fungal cells at the final concentration of 10,000 cfu/ml. Plates were incubated for 1-12 days at 27° C.

Trichosporon beigelii = experiment: In vitro antifungal activity (MIC) against Trichosporon beigelii; format: cell-based; details: ATCC28592, strain ATCC 28592, pH 7.0, 27° C., 10,000 cfu/ml, 0.2% low melting point agarose
Method: as §1

[1] = system: Trichophyton mentagrophytes; experiment: In vitro antifungal activity (MIC) against Trichophyton mentagrophytes; format: cell-based; details: strain CF1007, pH 7.0, 27° C., 10,000 cfu/ml, 0.2% low melting point agarose
Method: as §1

Aspergillus fumigatus [2] = details: pH 7.0, 27° C., 10,000 cfu/ml, 0.2% low melting point agarose
Method: as §1

Candida albicans = experiment: microbe, parasite or virus in culture
Method: as §1

Cryptococcus neoformans = experiment: microbe, parasite or virus in culture
Method: as §1

Aspergillus fumigatus [3] = experiment: microbe, parasite or virus in culture; details: pH 7
Method: as §1

## OC(Cn1cncn1)(Cn1cncn1)c1ccc(F)cc1F [FCZ, fluconazole]
Absidia corymbifera
  MIC: > 200 µg/mL
Trichosporon beigelii
  MIC: 0.39 µg/mL (≈ 1.27 µM)
[1]
  MIC: > 200 µg/mL
Aspergillus fumigatus [2]; strain 437
  MIC: > 200 µg/mL
Aspergillus fumigatus [2]; strain CF1004
  MIC: > 200 µg/mL
Candida albicans; ATCC48130, pH 7, strain ATCC48130, pH 7.0, 27° C., 10,000 cfu/ml
  MIC: > 200 µg/mL
Candida albicans; pH 7, strain 652, pH 7.0, 27° C., 10,000 cfu/ml
  MIC: > 200 µg/mL
Candida albicans; pH 7, strain AD, pH 7.0, 27° C., 10,000 cfu/ml
  MIC: 200 µg/mL (≈ 653 µM)
Candida albicans; pH 7, strain C42, pH 7.0, 27° C., 10,000 cfu/ml
  MIC: > 200 µg/mL
Candida albicans; pH 7, strain KB, pH 7.0, 27° C., 10,000 cfu/ml
  MIC: > 200 µg/mL
Cryptococcus neoformans; pH 7, strain 422, pH 7.0, 27° C., 10,000 cfu/ml
  MIC: > 200 µg/mL
Cryptococcus neoformans; pH 7, strain MTU13001, pH 7.0, 27° C., 10,000 cfu/ml
  MIC: 12.5 µg/mL (≈ 40.8 µM)
Aspergillus fumigatus [3]
  MIC: > 200 µg/mL
